Results from patent US20220389061A1, “IMMUNOMODULATORS” (priority 2019, published 2022).
Starred links: 1 amine or outer side, 2 acyl side, 3 side chain; linkers in the order of their positions; H or OH if unused. Positions of bridges follow the written chain, without caps; N, C: chain ends. Non-standard residues stand in square brackets, D forms with d. Residues, ends and D or L forms follow the SMILES beside them. Groups on a side chain read outwards from the residue. *: point of attachment. Trp(1-CH2CO2Me) = COC(=O)Cn1cc(C[C@H](N)C(=O)O)c2ccccc21; Trp(1-CH2COOH) = N[C@@H](Cc1cn(CC(=O)O)c2ccccc12)C(=O)O; Benzoyl(2-(4-MeOPh)) = COc1ccc(-c2ccccc2C(=O)*)cc1; X18 = O=[N+]([O-])c1ccc(NC(=S)*)c(Cl)c1; X24 = COc1cc(NC(=S)*)ccc1-n1cnc(C)n1; X79 = CCn1c2ccccc2c2cc(NC(=S)*)ccc21; Hyp = O=C(O)[C@@H]1C[C@@H](O)CN1; X25 = FC(F)(F)Oc1ccc(NC(=S)*)cc1; X32 = c1ccc2c(c1)Cc1cc(N*)ccc1-2; X84 = COc1cc(NC(=S)*)cc(OC)c1OC; X94 = S=C(Nc1ccc(N2CCOCC2)nc1)*; X28 = Cc1ccc(Cl)c(NC(=S)*)c1Cl; X29 = c1ccc(Oc2ccc(N*)cc2)cc1; NMeNle = CCCC[C@H](NC)C(=O)O; X54 = S=C(Nc1cccc2ncccc12)*; X2 = c1ccc(-c2ccccc2N*)cc1; NMeA = CN[C@@H](C)C(=O)O; Dab = NCC[C@H](N)C(=O)O; Dap = NC[C@H](N)C(=O)O; CO = O=C([*:1])[*:2]

Target: T1, PD-1/PD-L1 (Homo sapiens, UniProt Q9NZQ7)
T1 construct: TVMV protease site linker (C); made in house; host or cells: HEK293T cells
Test: PD-1/PD-L1 Homogenous Time-Resolved Fluorescence (HTRF) binding assay
Conditions: not given
How it was run: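 Compounds preincubated 15 min with PD-L1-His (10 nM final), then PD-1-Ig (20 nM final) added for 15 min in dPBS with 0.1% BSA, 0.05% Tween-20. Detection by Eu-cryptate anti-Ig (1 nM) and APC anti-His (20 nM) HTRF.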

T1 sequence (Q9NZQ7 18-239): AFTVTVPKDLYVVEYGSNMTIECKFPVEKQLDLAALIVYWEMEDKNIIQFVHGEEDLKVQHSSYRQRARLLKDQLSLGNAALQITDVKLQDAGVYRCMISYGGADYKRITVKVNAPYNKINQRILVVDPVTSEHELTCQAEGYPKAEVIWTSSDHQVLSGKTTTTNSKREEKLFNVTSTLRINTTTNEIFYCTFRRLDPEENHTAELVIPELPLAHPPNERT

Structure (SMILES)	IC50
CCCC[C@H]1C(=O)N(C)[C@@H](CCCC)C(=O)N[C@@H](CC(C)C)C(=O)N[C@H](C(=O)NCC(N)=O)CSCC(=O)N[C@@H](Cc2ccc(O)cc2)C(=O)N(C)[C@@H](C)C(=O)N[C@@H](CC(N)=O)C(=O)N2CCC[C@H]2C(=O)N[C@@H](CNC(=O)Nc2ccc3c(c2)Cc2ccccc2-3)C(=O)N[C@@H](CC(C)C)C(=O)N2C[C@H](O)C[C@H]2C(=O)N[C@@H](Cc2c[nH]c3ccccc23)C(=O)N[C@@H](CCNC(=O)Nc2ccc3c(c2)Cc2ccccc2-3)C(=O)N[C@@H](Cc2cn(CC(=O)O)c3ccccc23)C(=O)N1C [Example 2008] ({CH2CO}-Y[NMeA]NP[Dap]([CO-X32])L[Hyp]W[Dab]([CO-X32])[Trp(1-CH2COOH)][NMeNle][NMeNle]LCG-NH2; thioether N-14)	46.7 nM

Same assay, conditions: PD-L1-His 10 nM pre-incubated with inhibitor, PD-1-Ig 20 nM; read-out: HTRF IC50

Structure (SMILES)	IC50
CCCC[C@H]1C(=O)N(C)[C@@H](CCCC)C(=O)N[C@@H](CC(C)C)C(=O)N[C@H](C(=O)NCC(N)=O)CSCC(=O)N[C@@H](Cc2ccc(O)cc2)C(=O)N(C)[C@@H](C)C(=O)N[C@@H](CC(N)=O)C(=O)N2CCC[C@H]2C(=O)N[C@@H](CNC(=O)c2ccccc2-c2ccc(OC)cc2)C(=O)N[C@@H](CC(C)C)C(=O)N2C[C@H](O)C[C@H]2C(=O)N[C@@H](Cc2c[nH]c3ccccc23)C(=O)N[C@@H](CCNC(=O)c2ccccc2-c2ccc(OC)cc2)C(=O)N[C@@H](Cc2cn(CC(=O)OC)c3ccccc23)C(=O)N1C [Example 1050] ({CH2CO}-Y[NMeA]NP[Dap](Benzoyl(2-(4-MeOPh)))L[Hyp]W[Dab](Benzoyl(2-(4-MeOPh)))[Trp(1-CH2CO2Me)][NMeNle][NMeNle]LCG-NH2; thioether N-14)	39 nM
CCCC[C@H]1C(=O)N(C)[C@@H](CCCC)C(=O)N[C@@H](CC(C)C)C(=O)N[C@H](C(=O)NCC(N)=O)CSCC(=O)N[C@@H](Cc2ccc(O)cc2)C(=O)N(C)[C@@H](C)C(=O)N[C@@H](CC(N)=O)C(=O)N2CCC[C@H]2C(=O)N[C@@H](CNC(=S)Nc2cc(OC)c(OC)c(OC)c2)C(=O)N[C@@H](CC(C)C)C(=O)N2C[C@H](O)C[C@H]2C(=O)N[C@@H](Cc2c[nH]c3ccccc23)C(=O)N[C@@H](CCNC(=S)Nc2cc(OC)c(OC)c(OC)c2)C(=O)N[C@@H](Cc2cn(CC(=O)O)c3ccccc23)C(=O)N1C [Example 1083] ({CH2CO}-Y[NMeA]NP[Dap](X84)L[Hyp]W[Dab](X84)[Trp(1-CH2COOH)][NMeNle][NMeNle]LCG-NH2; thioether N-14)	0.6 nM
CCCC[C@H]1C(=O)N(C)[C@@H](CCCC)C(=O)N[C@@H](CC(C)C)C(=O)N[C@H](C(=O)NCC(N)=O)CSCC(=O)N[C@@H](Cc2ccc(O)cc2)C(=O)N(C)[C@@H](C)C(=O)N[C@@H](CC(N)=O)C(=O)N2CCC[C@H]2C(=O)N[C@@H](CNC(=S)Nc2c(Cl)ccc(C)c2Cl)C(=O)N[C@@H](CC(C)C)C(=O)N2C[C@H](O)C[C@H]2C(=O)N[C@@H](Cc2c[nH]c3ccccc23)C(=O)N[C@@H](CCNC(=S)Nc2c(Cl)ccc(C)c2Cl)C(=O)N[C@@H](Cc2cn(CC(=O)O)c3ccccc23)C(=O)N1C [Example 1113] ({CH2CO}-Y[NMeA]NP[Dap](X28)L[Hyp]W[Dab](X28)[Trp(1-CH2COOH)][NMeNle][NMeNle]LCG-NH2; thioether N-14)	9.3 nM
CCCC[C@H]1C(=O)N(C)[C@@H](CCCC)C(=O)N[C@@H](CC(C)C)C(=O)N[C@H](C(=O)NCC(N)=O)CSCC(=O)N[C@@H](Cc2ccc(O)cc2)C(=O)N(C)[C@@H](C)C(=O)N[C@@H](CC(N)=O)C(=O)N2CCC[C@H]2C(=O)N[C@@H](CNC(=S)Nc2ccc(OC(F)(F)F)cc2)C(=O)N[C@@H](CC(C)C)C(=O)N2C[C@H](O)C[C@H]2C(=O)N[C@@H](Cc2c[nH]c3ccccc23)C(=O)N[C@@H](CCNC(=S)Nc2ccc(OC(F)(F)F)cc2)C(=O)N[C@@H](Cc2cn(CC(=O)O)c3ccccc23)C(=O)N1C [Example 1010] ({CH2CO}-Y[NMeA]NP[Dap](X25)L[Hyp]W[Dab](X25)[Trp(1-CH2COOH)][NMeNle][NMeNle]LCG-NH2; thioether N-14)	7.1 nM
CCCC[C@H]1C(=O)N(C)[C@@H](CCCC)C(=O)N[C@@H](CC(C)C)C(=O)N[C@H](C(=O)NCC(N)=O)CSCC(=O)N[C@@H](Cc2ccc(O)cc2)C(=O)N(C)[C@@H](C)C(=O)N[C@@H](CC(N)=O)C(=O)N2CCC[C@H]2C(=O)N[C@@H](CNC(=S)Nc2ccc([N+](=O)[O-])cc2Cl)C(=O)N[C@@H](CC(C)C)C(=O)N2C[C@H](O)C[C@H]2C(=O)N[C@@H](Cc2c[nH]c3ccccc23)C(=O)N[C@@H](CCN)C(=O)N[C@@H](Cc2cn(CC(=O)O)c3ccccc23)C(=O)N1C [Example 1111] ({CH2CO}-Y[NMeA]NP[Dap](X18)L[Hyp]W[Dab][Trp(1-CH2COOH)][NMeNle][NMeNle]LCG-NH2; thioether N-14)	9 nM
CCCC[C@H]1C(=O)N(C)[C@@H](CCCC)C(=O)N[C@@H](CC(C)C)C(=O)N[C@H](C(=O)NCC(N)=O)CSCC(=O)N[C@@H](Cc2ccc(O)cc2)C(=O)N(C)[C@@H](C)C(=O)N[C@@H](CC(N)=O)C(=O)N2CCC[C@H]2C(=O)N[C@@H](CNC(=O)c2ccccc2-c2ccc(OC)cc2)C(=O)N[C@@H](CC(C)C)C(=O)N2C[C@H](O)C[C@H]2C(=O)N[C@@H](Cc2c[nH]c3ccccc23)C(=O)N[C@@H](CCNC(=O)c2ccccc2-c2ccc(OC)cc2)C(=O)N[C@@H](Cc2cn(CC(=O)O)c3ccccc23)C(=O)N1C [Example 1095] ({CH2CO}-Y[NMeA]NP[Dap](Benzoyl(2-(4-MeOPh)))L[Hyp]W[Dab](Benzoyl(2-(4-MeOPh)))[Trp(1-CH2COOH)][NMeNle][NMeNle]LCG-NH2; thioether N-14)	5.7 nM
CCCC[C@H]1C(=O)N(C)[C@@H](CCCC)C(=O)N[C@@H](CC(C)C)C(=O)N[C@H](C(=O)NCC(N)=O)CSCC(=O)N[C@@H](Cc2ccc(O)cc2)C(=O)N(C)[C@@H](C)C(=O)N[C@@H](CC(N)=O)C(=O)N2CCC[C@H]2C(=O)N[C@@H](CNC(=S)Nc2cccc3ncccc23)C(=O)N[C@@H](CC(C)C)C(=O)N2C[C@H](O)C[C@H]2C(=O)N[C@@H](Cc2c[nH]c3ccccc23)C(=O)N[C@@H](CCN)C(=O)N[C@@H](Cc2cn(CC(=O)O)c3ccccc23)C(=O)N1C [Example 3018] ({CH2CO}-Y[NMeA]NP[Dap](X54)L[Hyp]W[Dab][Trp(1-CH2COOH)][NMeNle][NMeNle]LCG-NH2; thioether N-14)	3.8 nM
CCCC[C@H]1C(=O)N(C)[C@@H](CCCC)C(=O)N[C@@H](CC(C)C)C(=O)N[C@H](C(=O)NCC(N)=O)CSCC(=O)N[C@@H](Cc2ccc(O)cc2)C(=O)N(C)[C@@H](C)C(=O)N[C@@H](CC(N)=O)C(=O)N2CCC[C@H]2C(=O)N[C@@H](CNC(=S)Nc2ccc3c(c2)c2ccccc2n3CC)C(=O)N[C@@H](CC(C)C)C(=O)N2C[C@H](O)C[C@H]2C(=O)N[C@@H](Cc2c[nH]c3ccccc23)C(=O)N[C@@H](CCN)C(=O)N[C@@H](Cc2cn(CC(=O)O)c3ccccc23)C(=O)N1C [Example 2014] ({CH2CO}-Y[NMeA]NP[Dap](X79)L[Hyp]W[Dab][Trp(1-CH2COOH)][NMeNle][NMeNle]LCG-NH2; thioether N-14)	3.8 nM
CCCC[C@H]1C(=O)N(C)[C@@H](CCCC)C(=O)N[C@@H](CC(C)C)C(=O)N[C@H](C(=O)NCC(N)=O)CSCC(=O)N[C@@H](Cc2ccc(O)cc2)C(=O)N(C)[C@@H](C)C(=O)N[C@@H](CC(N)=O)C(=O)N2CCC[C@H]2C(=O)N[C@@H](CNC(=O)Nc2ccc(Oc3ccccc3)cc2)C(=O)N[C@@H](CC(C)C)C(=O)N2C[C@H](O)C[C@H]2C(=O)N[C@@H](Cc2c[nH]c3ccccc23)C(=O)N[C@@H](CCN)C(=O)N[C@@H](Cc2cn(CC(=O)O)c3ccccc23)C(=O)N1C [Example 1070] ({CH2CO}-Y[NMeA]NP[Dap]([CO-X29])L[Hyp]W[Dab][Trp(1-CH2COOH)][NMeNle][NMeNle]LCG-NH2; thioether N-14)	5.5 nM
CCCC[C@H]1C(=O)N(C)[C@@H](CCCC)C(=O)N[C@@H](CC(C)C)C(=O)N[C@H](C(=O)NCC(N)=O)CSCC(=O)N[C@@H](Cc2ccc(O)cc2)C(=O)N(C)[C@@H](C)C(=O)N[C@@H](CC(N)=O)C(=O)N2CCC[C@H]2C(=O)N[C@@H](CNC(=S)Nc2ccc(N3CCOCC3)nc2)C(=O)N[C@@H](CC(C)C)C(=O)N2C[C@H](O)C[C@H]2C(=O)N[C@@H](Cc2c[nH]c3ccccc23)C(=O)N[C@@H](CCN)C(=O)N[C@@H](Cc2cn(CC(=O)O)c3ccccc23)C(=O)N1C [Example 1058] ({CH2CO}-Y[NMeA]NP[Dap](X94)L[Hyp]W[Dab][Trp(1-CH2COOH)][NMeNle][NMeNle]LCG-NH2; thioether N-14)	4 nM
CCCC[C@H]1C(=O)N(C)[C@@H](CCCC)C(=O)N[C@@H](CC(C)C)C(=O)N[C@H](C(=O)NCC(N)=O)CSCC(=O)N[C@@H](Cc2ccc(O)cc2)C(=O)N(C)[C@@H](C)C(=O)N[C@@H](CC(N)=O)C(=O)N2CCC[C@H]2C(=O)N[C@@H](CNC(=S)Nc2ccc(-n3cnc(C)n3)c(OC)c2)C(=O)N[C@@H](CC(C)C)C(=O)N2C[C@H](O)C[C@H]2C(=O)N[C@@H](Cc2c[nH]c3ccccc23)C(=O)N[C@@H](CCNC(=S)Nc2ccc(-n3cnc(C)n3)c(OC)c2)C(=O)N[C@@H](Cc2cn(CC(=O)O)c3ccccc23)C(=O)N1C [Example 1092] ({CH2CO}-Y[NMeA]NP[Dap](X24)L[Hyp]W[Dab](X24)[Trp(1-CH2COOH)][NMeNle][NMeNle]LCG-NH2; thioether N-14)	3.4 nM

Same assay, conditions: read-out: HTRF IC50; PD-L1-His 10 nM pre-incubated with inhibitor, PD-1-Ig 20 nM

Structure (SMILES)	IC50
CCCC[C@H]1C(=O)N(C)[C@@H](CCCC)C(=O)N[C@@H](CC(C)C)C(=O)N[C@H](C(=O)NCC(N)=O)CSCC(=O)N[C@@H](Cc2ccc(O)cc2)C(=O)N(C)[C@@H](C)C(=O)N[C@@H](CC(N)=O)C(=O)N2CCC[C@H]2C(=O)N[C@@H](CNC(=O)Nc2ccccc2-c2ccccc2)C(=O)N[C@@H](CC(C)C)C(=O)N2C[C@H](O)C[C@H]2C(=O)N[C@@H](Cc2c[nH]c3ccccc23)C(=O)N[C@@H](CCNC(=O)Nc2ccccc2-c2ccccc2)C(=O)N[C@@H](Cc2cn(CC(=O)O)c3ccccc23)C(=O)N1C [Example 1126] ({CH2CO}-Y[NMeA]NP[Dap]([CO-X2])L[Hyp]W[Dab]([CO-X2])[Trp(1-CH2COOH)][NMeNle][NMeNle]LCG-NH2; thioether N-14)	1 nM
